Measurements reported in patent publication US12643871B2, “Aryl formamide compound containing chiral sulfur oxide or salt thereof, preparation method, herbicidal composition and use thereof” (Qingdao Kingagroot Chemical Compound Co., Ltd., priority 2019, dated 2026).

Columns and labels:
Assay in all cases: Weeding effect in post-emergence stage
Type in all cases: in vivo
Conditions in all cases: 250 g/ha; 2 leaf stage; 15 days after application; fresh weight control rate
Amaranthus retroflexus = test system: Amaranthus retroflexus
Summary of the method: (§1)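 Two-leaf-stage pot plants, spray-tower application at 500/250/125/60/30/15 g/ha with methyl oleate EC synergist; fresh weight control level (0–5) read at 15 days post-treatment, three replicates averaged.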

Echinochloa crusgali = test system: Echinochloa crusgali
Summary of the method: as §1

Digitaria sanguinalis = test system: Digitaria sanguinalis
Summary of the method: as §1

Row | SMILES | weeding effect in post-emergence stage, activity level (growth control rate), Amaranthus retroflexus (Amaranthus retroflexus) | weeding effect in post-emergence stage, activity level (growth control rate), Echinochloa crusgali (Echinochloa crusgali) | weeding effect in post-emergence stage, activity level (growth control rate), Digitaria sanguinalis (Digitaria sanguinalis)
1 | CCC[S@@+]([O-])c1c(S(C)(=O)=O)ccc(C(=O)Nc2nnnn2C)c1C [Compound 512] | 5 (Level 5: growth control rate is above 85%) | 5 (Level 5: growth control rate is above 85%) | 
2 | Cc1c(C(=O)Nc2nnnn2C)ccc(S(C)(=O)=O)c1[S@+]([O-])C(C)C [Compound 513] | 5 (Level 5: growth control rate is above 85%) | 5 (Level 5: growth control rate is above 85%) | 
3 | Cc1c(C(=O)Nc2nnnn2C)ccc(S(C)(=O)=O)c1[S@+]([O-])CC(C)C [Compound 515] | 5 (Level 5: growth control rate is above 85%) | 5 (Level 5: growth control rate is above 85%) | 
4 | C=CC[S@@+]([O-])c1c(S(C)(=O)=O)ccc(C(=O)Nc2nnnn2C)c1C [Compound 516] | 5 (Level 5: growth control rate is above 85%) | 5 (Level 5: growth control rate is above 85%) | 
5 | C#CC[S@@+]([O-])c1c(S(C)(=O)=O)ccc(C(=O)Nc2nnnn2C)c1C [Compound 517] | 5 (Level 5: growth control rate is above 85%) | 5 (Level 5: growth control rate is above 85%) | 
6 | CSCC[S@@+]([O-])c1c(C(F)(F)F)ccc(C(=O)Nc2nnnn2C)c1SC [Compound 595] | 5 (Level 5: growth control rate is above 85%) | 5 (Level 5: growth control rate is above 85%) | 5 (Level 5: growth control rate is above 85%)
7 | CSc1c(C(=O)Nc2nnnn2C)ccc(C(F)(F)F)c1[S@+]([O-])CCF [Compound 596] | 5 (Level 5: growth control rate is above 85%) | 5 (Level 5: growth control rate is above 85%) | 5 (Level 5: growth control rate is above 85%)
8 | CSC(=O)C[S@@+]([O-])c1c(C(F)(F)F)ccc(C(=O)Nc2nnc(C)o2)c1F [Compound 597] | 5 (Level 5: growth control rate is above 85%) | 5 (Level 5: growth control rate is above 85%) | 5 (Level 5: growth control rate is above 85%)
9 | CSCCC[S@@+]([O-])c1c(C(F)(F)F)ccc(C(=O)Nc2nnc(C)o2)c1F [Compound 598] | 5 (Level 5: growth control rate is above 85%) | 5 (Level 5: growth control rate is above 85%) | 5 (Level 5: growth control rate is above 85%)
10 | CSCCC[S@@+]([O-])c1c(C(F)(F)F)ccc(C(=O)Nc2nnc(C)o2)c1SC [Compound 599] | 5 (Level 5: growth control rate is above 85%) | 5 (Level 5: growth control rate is above 85%) | 5 (Level 5: growth control rate is above 85%)
11 | CCC[S@@+]([O-])c1c(C(F)(F)F)ccc(C(=O)Nc2ncn[nH]2)c1F [Compound 600] | 5 (Level 5: growth control rate is above 85%) | 5 (Level 5: growth control rate is above 85%) | 5 (Level 5: growth control rate is above 85%)
12 | Cc1c(C(=O)Nc2nnnn2C)ccc(S(C)(=O)=O)c1[S@+]([O-])CCCC(F)(F)F [Compound 601] | 5 (Level 5: growth control rate is above 85%) | 5 (Level 5: growth control rate is above 85%) | 5 (Level 5: growth control rate is above 85%)
13 | Cc1nnc(NC(=O)c2ccc(S(C)(=O)=O)c([S@+]([O-])CCC(C)(C)C)c2C)o1 [Compound 602] | 5 (Level 5: growth control rate is above 85%) | 5 (Level 5: growth control rate is above 85%) | 5 (Level 5: growth control rate is above 85%)
14 | Cc1c(C(=O)Nc2nnnn2C)ccc(S(C)(=O)=O)c1[S@+]([O-])CCC(C)(C)C [Compound 603] | 5 (Level 5: growth control rate is above 85%) | 5 (Level 5: growth control rate is above 85%) | 5 (Level 5: growth control rate is above 85%)
15 | Cc1nnc(NC(=O)c2ccc(S(C)(=O)=O)c([S@+]([O-])CC(=O)N(C)C)c2C)o1 [Compound 604] | 5 (Level 5: growth control rate is above 85%) | 5 (Level 5: growth control rate is above 85%) | 5 (Level 5: growth control rate is above 85%)
16 | Cc1c(C(=O)Nc2nnnn2C)ccc(S(C)(=O)=O)c1[S+]([O-])COC(=O)C(C)(C)C (stereo not shown) [Compound 605] | 5 (Level 5: growth control rate is above 85%) | 5 (Level 5: growth control rate is above 85%) | 5 (Level 5: growth control rate is above 85%)
17 | Cc1c(C(=O)Nc2nnnn2C)ccc(S(C)(=O)=O)c1[S@+]([O-])CC(=O)N(C)C [Compound 606] | 5 (Level 5: growth control rate is above 85%) | 5 (Level 5: growth control rate is above 85%) | 5 (Level 5: growth control rate is above 85%)
18 | Cc1c(C(=O)Nc2nnnn2C)ccc(S(C)(=O)=O)c1[S@+]([O-])CCO [Compound 607] | 5 (Level 5: growth control rate is above 85%) | 5 (Level 5: growth control rate is above 85%) | 5 (Level 5: growth control rate is above 85%)
19 | Cc1c(C(=O)Nc2nnnn2C)ccc(S(C)(=O)=O)c1[S@+]([O-])CCC#N [Compound 608] | 5 (Level 5: growth control rate is above 85%) | 5 (Level 5: growth control rate is above 85%) | 5 (Level 5: growth control rate is above 85%)
